Data on eight compounds can be found in patent US8431588B2, “Cyclopropyl polymerase inhibitors” (Janssen Products, LP, priority 2008, dated 2013).

Where two headings read alike, the source gives them in different places.

Series [1] deals with HCV type 1b replicon in Huh-7 luc/neo (Huh-Luc) cells. Briefly: HCV replicon assay (Huh-Luc, luciferase readout). Type of series: cell-based. The following applies: Hepatitis C virus, Huh-7, 72 h, read-out: EC50 (replicon). From the text: The compounds of formula I were examined for activity in the inhibition of HCV RNA replication in a cellular assay aimed at identifying compounds that inhibit a HCV functional cellular replicating cell line, also known as HCV replicons. The cellular assay was based on a bicistronic expression construct, as described by Lohmann et al. (1999), Science vol. 285 pp. 110-113 with modifications described by Krieger et al. (2001), Journal of Virology 75: 4614-4624, in a multi-target screening strategy.
The assay utilized the stably transfected cell line Huh-7 luc/neo (hereafter referred to as Huh-Luc). This cell line harbors an RNA encoding a bicistronic expression construct comprising the wild type NS3-NS5B regions of HCV type 1b translated from an Internal Ribosome Entry Site (IRES) from encephalomyocarditis virus (EMCV), preceded by a reporter portion (FfL-luciferase), and a selectable marker portion (neo^R, neomycine phosphotransferase). The construct is bordered by 5′ and 3′ NTRs (non-translated regions) from HCV type 1b. Continued culture of the replicon cells in the presence of G418 (neo^R) is dependent on the replication of the HCV RNA. The stably transfected replicon cells that express HCV RNA, which replicates autonomously and to high levels, encoding inter alia luciferase, were used for screening the antiviral compounds.
The replicon cells were plated in 384 well plates in the presence of the test and control compounds which were added in various concentrations. Following an incubation of three days, HCV replication was measured by assaying luciferase activity (using standard luciferase assay substrates and reagents and a Perkin Elmer ViewLux™ ultraHTS microplate imager). Replicon cells in the control cultures have high luciferase expression in the absence of any inhibitor. The inhibitory activity of the compound on luciferase activity was monitored on the Huh-Luc cells, enabling a dose-response curve for each test compound. EC50 values were then calculated, which value represents the amount of the compound required to decrease the level of detected luciferase activity by 50%, or more specifically, the ability of the genetically linked HCV replicon RNA to replicate.

The nature of series [2]: Cellular toxicity in the Huh7-CMV-Luc replicon assay. The following applies: human; Huh7-CMV-Luc cells, three days incubation, Luc activity. Type of series: cell-based. As to the method:
Cellular toxicity was determined in the Huh7-CMV-Luc replicon assay. Replicon cells (2500 cells/well), stably transformed with a luciferase reporter gene under control of the cytomegalovirus (CMV) constitutive promotor, were cultured in the presence or absence of test compound concentrations. After three days of incubation at 37° C. in a humidified 5% CO2 atmosphere, cell proliferation was quantified by measuring the Luc activity, and expressed as CC50 values (cytotoxicity, 50% inhibitory concentration of cell growth). Tests were performed in 384-well plates.

The test system of series [3] is wild type human immunodeficiency virus (HIV) strain IIIB. The series can be described thus: microbe, parasite or virus in culture. Type of series: cell-based, HIV-1. As to conditions: read-out: EC50 (IIIB). As to the method:
Compounds of the invention were tested for their potency against wild type human immunodeficiency virus (HIV). Antiviral activity was evaluated using a cellular assay performed according to the following procedure. The human T-cell line MT4 was engineered with Green Fluorescent Protein (GFP) and a HIV-specific promoter, HIV-1 long terminal repeat (LTR). This cell line, designated MT4 LTR-EGFP, can be used for the in vitro evaluation of anti-HIV activity of investigational compounds. In HIV-1 infected cells, the Tat protein is produced, which upregulates the LTR promotor and eventually leads to stimulation of the GFP reporter production, allowing to measure ongoing HIV-infection fluorometrically. Effective concentration values such as 50% effective concentration (EC50) can be determined and are usually expressed in μM. An EC50 value is defined as the concentration of test compound that reduces the fluorescence of HIV-infected cells by 50%. Monitoring of HIV-1 infection was done using a scanning microscope. Image analysis allows very sensitive detection of viral infection. Measurements were done before cell necrosis, which usually takes place about five days after infection, in particular measurements were performed three days after infection. The column IIIB in the table list the EC50 values against the wild type strain IIIB.

The mark [4] stands for this setting: Huh-Luc replicon cells, three days incubation, luciferase activity.
Setting [5] is: Human immunodeficiency virus 1, 72 h, wild type strain IIIB, MT4 LTR-EGFP cells, three days after infection.

On to `C[C@H](NP(=O)(OC[C@H]1O[C@@H](n2ccc(N)nc2=O)C2(CC2)[C@@H]1O)Oc1ccccc1)C(=O)OCc1ccccc1` (stereo partly drawn) [Compound 2a, (2S)-benzyl 2-((((4R,6R,7S)-4-(4-amino-2-oxopyrimidin-1(2H)-yl)-7-hydroxy-5-oxaspiro[2.4]heptan-6-yl)methoxy)((phenoxy)phosphoryl)amino)propanoate], for which the figures for the EC50 in series [1] (setting [4]) and in series [3] (setting [5]) were 15.3 µM and over 98 µM, respectively. In addition, the CC50 at 3 days in series [2] is over 98 µM.
For the compound `CC(C)C(=O)OC[C@H]1O[C@@H](n2ccc(N)nc2=O)C2(CC2)[C@@H]1O` [Compound 4, ((4R,6R,7S)-4-(4-amino-2-oxopyrimidin-1(2H)-yl)-7-hydroxy-5-oxaspiro[2.4]heptan-6-yl)methyl isobutyrate], the EC50 in series [1] (setting [4]) is 9.2 µM; in series [3] (Human immunodeficiency virus 1, IIIB, 72 h) it was over 98 µM. The same compound had a CC50 at 3 days in series [2] of over 98 µM.
As for `CC(C)C(=O)O[C@@H]1[C@@H](CO)O[C@@H](n2ccc(N)nc2=O)C12CC2` [Compound 5, (4R,6R,7S)-4-(4-amino-2-oxopyrimidin-1(2H)-yl)-6-(hydroxymethyl)-5-oxaspiro[2.4]heptan-7-yl isobutyrate], the values for the EC50 in series [1] (setting [4]) and in series [3] (setting [5]) were 42.5 µM and over 98 µM, respectively. The 50% cytotoxic concentration (CC50) at 3 days in series [2] is over 98 µM.
In the case of `Nc1ccn([C@@H]2O[C@H](CO)[C@@H](O)C23CC3)c(=O)n1` [Compound 1, 4-Amino-1-(7-hydroxy-6-hydroxymethyl-5-oxa-spiro[2.4]hept-4-yl)-1H-pyrimidin-2-one], the EC50 in series [1] (setting [4]) was 8.4 µM; in series [3] (setting [5]), over 98 µM. The CC50 at 3 days in series [2] is over 98 µM.
For the compound `CCOC(=O)[C@H](Cc1ccccc1)NP(=O)(OC[C@H]1O[C@@H](n2ccc(N)nc2=O)C2(CC2)[C@@H]1O)Oc1ccccc1` (stereo partly drawn) [Compound 2c, (2S)-ethyl 2-((((4R,6R,7S)-4-(4-amino-2-oxopyrimidin-1(2H)-yl)-7-hydroxy-5-oxaspiro[2.4]heptan-6-yl)methoxy)(phenoxy)phosphorylamino)-3-phenylpropanoate], the EC50 in series [1] is at least 98 µM; in series [3] (setting [5]), over 98 µM. In series [2], this compound registered a cytotoxic concentration (CC50) at 3 days of over 98 µM.
For `CC(C)C(=O)OC[C@H]1O[C@@H](n2ccc(N)nc2=O)C2(CC2)[C@@H]1OC(=O)C(C)C` [Compound 3, (4R,6R,7S)-4-(4-amino-2-oxopyrimidin-1(2H)-yl)-6-(isobutyryl-oxymethyl)-5-oxaspiro[2.4]heptan-7-yl isobutyrate], the EC50 was 27.2 µM in series [1] (setting [4]) and over 98 µM in series [3] (setting [5]). The CC50 at 3 days in series [2] is over 98 µM.
On to `C[C@H](NP(=O)(OC[C@H]1O[C@@H](n2ccc(N)nc2=O)C2(CC2)[C@@H]1O)Oc1ccc(Cl)cc1)C(=O)OCc1ccccc1` (stereo partly drawn) [Compound 2b, (2S)-benzyl 2-((((4R,6R,7S)-4-(4-amino-2-oxopyrimidin-1(2H)-yl)-7-hydroxy-5-oxaspiro[2.4]heptan-6-yl)methoxy)(4-chlorophenoxy)phosphorylamino)propanoate], for which the EC50 in series [1] (setting [4]) is 26.3 µM; in series [3] (setting [5]), over 98 µM. Further, in series [2], the CC50 at 3 days was over 98 µM.
As for `COC(=O)[C@H](C)NP(=O)(OC[C@H]1O[C@@H](n2ccc(N)nc2=O)C2(CC2)[C@@H]1O)Oc1ccccc1` (stereo partly drawn) [Compound 2d, (2S)-methyl 2-((((4R,6R,7S)-4-(4-amino-2-oxopyrimidin-1(2H)-yl)-7-hydroxy-5-oxaspiro[2.4]heptan-6-yl)methoxy)(phenoxy)phosphorylamino)propanoate], the EC50 is 63.1 µM in series [1] (setting [4]) and over 98 µM in series [3] (setting [5]). In series [2], this compound registered a CC50 at 3 days of over 98 µM.
